Results on eight compounds are retold here after patent publication US20240116985A1, “STAPLED PEPTIDES AND METHODS THEREOF” (priority 2020, published 2024).

The subject of assay [1] is TCF/LEF luciferase Reporter in DLD1 cells. Put plainly: TCF reporter assay (DLD1 TCF/LEF luciferase reporter, Bright-Glo). It is filed as cell-based. Conditions: absolute IC50. The text has this:
Those skilled in the art will appreciate that other suitable reagents may be utilized and various parameters may be adjusted.
DLD1 reporter cell line was generated by using TCF/LEF luciferase Reporter Lentivirus (BPS Bioscience Catalog #79787). Parental DLD1 cells (ATCC@ CCL-221) were transfected with the lentivirus and followed by 3-day puromycin selection. Single clone was selected for Reporter assay.
On Day 1, cultured cells in flasks that are no more than about 60-70% confluent were washed with PBS and typsinized in 3 mL/T75 until cells were free floating. Spin down cells for 5 minutes at 1100RPM. While cells spin, determine the number of plates (3 compounds per plate) needed. After spinning, aspirate the supernatant gently and add 10 mL media (RPMI+4% FBS), and re-suspend and mix the cells gently. Count the cells twice in the cell counter Countess and take average of both the counts, and determine how many cells are needed. After plating cells at 5000 cells/well, seal with aerseal film. 90 uL cells/well. Incubate at 37° C. overnight, tap gently to mix and don't stack plates.
On Day 2, compounds were added. Stock solution was 10 mM. Make the DMSO containing media by adding 36 uL DMSO to 10 mL of media. Make the dilution wells by transferring 100 uL DMSO+Media into rows B-F of a protein LoBind 96-well plate. Row G is empty. Add any extra DMSO+media to row H. Transfer 4 uL of stock solution to Row A. One compound per column. Add 196 uL media to Row A, no DMSO in the media. Concentration of Row A was 200 uM. Mix well and do a 6 pt, 1:2 serial dilution, mix ×10 per transfer and change tips before each transfer. Removed excess volume from final well (row F) and discard. Transfer 10 uL of the compound containing media to cells with a multichannel according to plate maps. Add 60 uL DMSO containing media to the DMSO wells. The edge wells were typically not used in the assay and could be ignored if needed or replaced with PBS, but there typically were liquids in the wells. Cover plates with breathable plate sealer and incubate overnight.
A 96-well plate may be utilized to prepare dilution series for up to 12 compounds, each with several concentrations (e.g., 200, 100, 50, 25, 12.5, 6.25 and 0 uM; can be utilized as 100× depending on final test concentrations).
0 uM is the DMSO control for the whole plate. Edge well filled with 90 uL cells+10 uL DMSO containing media.
On Day 3, luciferase levels were assessed using Bright-Glo (Promega). Equilibrate Bright-Glo to room temperature before addition. 7 mL of mixed Bright-Gbo per plate. Unused Bright-Glo could be store at −80° C. Reconstituted reagent can be stored for up to 1 month at −80° C., or after one freeze-thaw. When ready to read, remove plates from incubator and let sit at room temperature for 15 minutes. Typically stagger taking out plates if reading multiple plates before adding the Bright-Glo. Add 90 uL/well Bright-Glo and shake gently for 3 minutes. Read luminescence on GloMax immediately using ‘BrightGlo’ programs.
Cellular activity was assessed using CTG. Equilibrate CTG reagents to room temperature. Equilibrate plates to room temp, e.g. 15 min. Use same time length for all plates. Add CTG reagent, 25 uL if using undiluted, or 90 uL if diluted 1 to 4. Shake for 2 min to induce cell lysis. Allow plate to incubate at RT for 10 min to stabilize lumine sent signal. Read luminesence using program ‘CellTiter-Glo’. Use Prism to find the Absolute IC50 (AbsIC50=X[50]) of each compound.
A general note: A reporter such as luciferase makes a cellular process visible.

Assay [2] has as its target T1, full-length beta-Catenin (Uniprot ID P35222) (Homo sapiens, UniProt P35222).
T1 construct: 10 nM full-length beta-Catenin (Uniprot ID P35222)
T1 sequence (P35222 1-781): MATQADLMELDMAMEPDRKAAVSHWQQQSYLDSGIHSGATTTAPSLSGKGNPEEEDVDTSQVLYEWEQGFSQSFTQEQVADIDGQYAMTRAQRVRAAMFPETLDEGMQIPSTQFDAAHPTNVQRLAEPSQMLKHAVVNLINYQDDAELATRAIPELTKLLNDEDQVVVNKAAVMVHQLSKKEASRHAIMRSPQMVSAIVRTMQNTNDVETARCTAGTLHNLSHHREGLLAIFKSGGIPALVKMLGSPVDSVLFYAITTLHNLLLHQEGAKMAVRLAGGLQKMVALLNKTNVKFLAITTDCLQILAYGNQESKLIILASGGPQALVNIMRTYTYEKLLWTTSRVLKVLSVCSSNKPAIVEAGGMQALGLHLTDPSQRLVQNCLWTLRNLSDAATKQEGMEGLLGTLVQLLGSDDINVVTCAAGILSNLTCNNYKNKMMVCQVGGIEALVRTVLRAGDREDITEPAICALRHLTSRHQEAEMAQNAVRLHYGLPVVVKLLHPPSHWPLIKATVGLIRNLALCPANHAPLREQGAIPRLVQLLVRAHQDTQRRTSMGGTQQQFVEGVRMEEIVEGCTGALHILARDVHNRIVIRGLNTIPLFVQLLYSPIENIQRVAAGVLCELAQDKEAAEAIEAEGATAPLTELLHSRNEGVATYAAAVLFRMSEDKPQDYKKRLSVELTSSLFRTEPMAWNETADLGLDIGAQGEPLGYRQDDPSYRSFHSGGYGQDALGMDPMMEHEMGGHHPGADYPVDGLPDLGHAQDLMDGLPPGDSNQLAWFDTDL
As to the kind of experiment: Fluorescence polarization IC50 (beta-catenin / 5FAM-TCF4 10-53 competition). It is filed as binding. The conditions noted are these: fluorescence polarization; read-out: beta-Catenin FP IC50. On the technique in general: In fluorescence polarisation assays a small probe gives low polarisation when free and higher when bound to something large.

In assay [3] the target is T2, beta-catenin/TCF4 engagement (Homo sapiens, UniProt P35222).
T2 construct: expressed in transfected cells; host or cells: HEK293
T2 sequence (P35222 1-781): T1 sequence (P35222 1-781)
Put plainly: Nano-BRET target engagement assay (B-cat-Halo & TCF4-Luc in HEK293 cells). It is filed as cell-based. The conditions noted are these: absolute IC50; read-out: NanoBRET Abs IC50. On the technique in general: Bioluminescence resonance energy transfer reports proximity on the nanometre scale.

The mark [4] stands for this setting: read-out: DLD1 reporter assay Abs IC50.
[5] abbreviates: read-out: DLD1 4% Abs IC50, DLD1 reporter, 4%.

Read-outs that look alike come from different tables or passages of the source.

As a reminder, the IC50 is the midpoint of a concentration-inhibition curve. Consider `CCNC(=O)[C@H](CCC(N)=O)NC(=O)[C@H](Cc1csc2ccccc12)NC(=O)[C@H](Cc1ccccc1Cl)NC(=O)[C@]12CCN(C1)C(=O)OCCCC=CCCCC1(CCCC=CC[C@]3(CCCN3C(C)=O)C(=O)N[C@@H](CC(=O)O)C(=O)N[C@@H](CC(C)(C)C)C(=O)N1)C(=O)N[C@@H](CC(=O)O)C(=O)N[C@@H](CN(CC(=O)O)CC(F)(F)F)C(=O)N[C@@H](C)C(=O)N[C@@H](C)C(=O)N[C@@H](Cc1ccccc1)C(=O)N[C@@H]([C@@H](C)O)C(=O)N2` (stereo partly drawn) [I-1240, Ac-PL3-Asp-Npg-B5-Asp-TfeGA-Ala-Ala-Phe-Thr-PyrS2-2C1F-BztA-Gln-NHEt], for which the figures for the half-maximal inhibitory concentration (IC50) in assay [1] (setting [4]), in assay [2] and in assay [3] were 4.9 µM, 0.033 µM and 11.5 µM, respectively.

For `CC(=O)N1CCC[C@]12CC=CCCCC1(CCCC=CCCCOC(=O)N3CC[C@@](C(=O)N[C@@H](Cc4ccccc4Cl)C(=O)N[C@@H](Cc4csc5ccccc45)C(=O)N[C@H](CO)[C@@H](C)O)(C3)NC(=O)[C@H]([C@@H](C)O)NC(=O)[C@H](Cc3ccccc3)NC(=O)[C@H](C)NC(=O)[C@H](C)NC(=O)[C@H](CN(CC(=O)O)CC(F)(F)F)NC(=O)[C@H](CC(=O)O)NC1=O)NC(=O)[C@H](CC(C)(C)C)NC(=O)[C@H](CC(=O)O)NC2=O` (stereo partly drawn) [I-1241, Ac-PL3-Asp-Npg-B5-Asp-TfeGA-Ala-Ala-Phe-Thr-PyrS2-2C1F-BztA-Thro1], the IC50 was 3.8 µM in assay [1] (setting [4]), 0.019 µM in assay [2] and 15.7 µM in assay [3].

`CC(=O)N1CCC[C@]12CC=CCCCC1(CCCC=CCCCOC(=O)N3CC[C@@](C(=O)N[C@@H](Cc4ccccc4Cl)C(=O)N[C@@H](Cc4csc5ccccc45)C(=O)N[C@@H](C)CO)(C3)NC(=O)[C@H]([C@@H](C)O)NC(=O)[C@H](Cc3ccccc3)NC(=O)[C@H](C)NC(=O)[C@H](C)NC(=O)[C@H](CN(CC(=O)O)CC(F)(F)F)NC(=O)[C@H](CC(=O)O)NC1=O)NC(=O)[C@H](CC(C)(C)C)NC(=O)[C@H](CC(=O)O)NC2=O` (stereo partly drawn) [I-1242, Ac-PL3-Asp-Npg-B5-Asp-TfeGA-Ala-Ala-Phe-Thr-PyrS2-2C1F-BztA-Alao1]: the IC50 is 4.8 µM in assay [1] (setting [4]), 3.8 µM in assay [1] (setting [5]), 0.03 µM in assay [2] and over 20 µM in assay [3].

With `CCNC(=O)[C@H](CO)NC(=O)[C@H](Cc1csc2ccccc12)NC(=O)[C@H](Cc1ccccc1Cl)NC(=O)[C@]12CCN(C1)C(=O)OCCCC=CCCCC1(CCCC=CC[C@]3(CCCN3C(C)=O)C(=O)N[C@@H](CC(=O)O)C(=O)N[C@@H](CC(C)(C)C)C(=O)N1)C(=O)N[C@@H](CC(=O)O)C(=O)N[C@@H](CC(=O)O)C(=O)N[C@@H](C)C(=O)N[C@@H](C)C(=O)N[C@@H](Cc1ccccc1)C(=O)N[C@@H]([C@@H](C)O)C(=O)N2` (stereo partly drawn) [I-1244, Ac-PL3-Asp-Npg-B5-Asp-Asp-Ala-Ala-Phe-Thr-PyrS2-2C1F-BztA-Ser-NHEt], the IC50 was 13.9 µM in assay [1] (setting [4]), 15.9 µM in assay [1] (setting [5]), 0.018 µM in assay [2] and 17.7 µM in assay [3].

For `CC(=O)N1CCC[C@]12CC=CCCCC1(CCCC=CCCCOC(=O)N3CC[C@@](C(=O)N[C@@H](Cc4ccccc4Cl)C(=O)N[C@@H](Cc4csc5ccccc45)C(=O)N[C@H](CO)[C@@H](C)O)(C3)NC(=O)[C@H]([C@@H](C)O)NC(=O)[C@H](Cc3ccccc3)NC(=O)[C@H](C)NC(=O)[C@H](C)NC(=O)[C@H](CC(=O)O)NC(=O)[C@H](CC(=O)O)NC1=O)NC(=O)[C@H](CC(C)(C)C)NC(=O)[C@H](CC(=O)O)NC2=O` (stereo partly drawn) [I-1245, Ac-PL3-Asp-Npg-B5-Asp-Asp-Ala-Ala-Phe-Thr-PyrS2-2C1F-BztA-Thro1], the IC50 came out at 7.3 µM in assay [1] (setting [4]), 4.1 µM in assay [1] (setting [5]), 0.009 µM in assay [2] and 12.2 µM in assay [3].

Consider `CC(=O)N1CCC[C@]12CC=CCCCC1(CCCC=CCCCOC(=O)N3CC[C@@](C(=O)N[C@@H](Cc4ccccc4Cl)C(=O)N[C@@H](Cc4csc5ccccc45)C(=O)N[C@@H](C)CO)(C3)NC(=O)[C@H]([C@@H](C)O)NC(=O)[C@H](Cc3ccccc3)NC(=O)[C@H](C)NC(=O)[C@H](C)NC(=O)[C@H](CC(=O)O)NC(=O)[C@H](CC(=O)O)NC1=O)NC(=O)[C@H](CC(C)(C)C)NC(=O)[C@H](CC(=O)O)NC2=O` (stereo partly drawn) [I-1246, Ac-PL3-Asp-Npg-B5-Asp-Asp-Ala-Ala-Phe-Thr-PyrS2-2C1F-BztA-Alao1], for which the IC50 in assay [1] (setting [4]) is 15.9 µM; in assay [1] (setting [5]) it was 16.2 µM; in assay [2] it was 0.013 µM; in assay [3], 24.3 µM.

Take `CC(=O)N1CCC[C@]12CC=CCCCC1(CCCC=CCCCOC(=O)N3CC[C@@](C(=O)N[C@@H](Cc4ccccc4Cl)C(=O)N[C@@H](Cc4csc5ccccc45)C(=O)N[C@H](CO)CC(C)C)(C3)NC(=O)[C@H]([C@@H](C)O)NC(=O)[C@H](Cc3ccccc3)NC(=O)[C@H](C)NC(=O)[C@H](C)NC(=O)[C@H](CC(=O)O)NC(=O)[C@H](CC(=O)O)NC1=O)NC(=O)[C@H](CC(C)(C)C)NC(=O)[C@H](CC(=O)O)NC2=O` (stereo partly drawn) [I-1247, Ac-PL3-Asp-Npg-B5-Asp-Asp-Ala-Ala-Phe-Thr-PyrS2-2C1F-BztA-Leuo1]: the concentration for half-maximal inhibition (IC50) in assay [1] (setting [4]) was over 20 µM; in assay [2], 0.033 µM; in assay [3] it was over 20 µM.

Regarding `CC(=O)N1CCC[C@]12CC=CCCCC1(CCCC=CCCCOC(=O)N3CC[C@@](C(=O)N[C@@H](Cc4ccsc4)C(=O)N[C@@H](Cc4csc5ccccc45)C(=O)N[C@H](CO)[C@@H](C)O)(C3)NC(=O)[C@H](CC(C)C)NC(=O)[C@H](Cc3ccccc3)NC(=O)[C@H](C)NC(=O)[C@H](C)NC(=O)[C@H](CC(=O)O)NC(=O)[C@H](CC(=O)O)NC1=O)NC(=O)[C@H](CC(C)(C)C)NC(=O)[C@H](CC(=O)O)NC2=O` (stereo partly drawn) [I-1302, Ac-PL3-Asp-Npg-B5-Asp-Asp-Ala-Ala-Phe-Leu-PyrS2-3Thi-BztA-Thro1], the results for the concentration for half-maximal inhibition (IC50) in assay [1] (setting [5]), in assay [2] and in assay [3] were 4 µM, 0.045 µM and 21.4 µM, respectively.
